Assay results from patent publication US20250354192A1, “METHODS FOR QUANTIFYING LIVE BACTERIA” (priority 2022, published 2025).

Test system: Pseudomonas
Experiment: Two-step labeling with EDA versus NADA-Green, PIPER counts relative to SYBR labeling
Type: cell-based
Conditions: 1 mM EDA 30 minutes plus click reaction solution, compared with 1 mM NADA-Green 60-90 minutes
Description: Universal labeling of all bacteria presents some challenges. D-amino acid analogs must first penetrate the outer membrane of gram-negative bacteria to be incorporated into peptidoglycan. The smaller size of the “clickable” D-amino acids compared to the FDAAs helps achieve higher labeling efficiency for some gram-negative bacteria. Accordingly, and for example, FIGS. 11A-B depict two-step labeling using the “clickable” D-amino acid, EDA, which improves detection of Pseudomonas. Log phase Pseudomonas growing at 37° C. in BHI (with [Supplemented BHI, red bars] or without [blue bars] supplementation with 50 mM glucose and 10 mM sodium pyruvate) was incubated for 60-90 minutes with 1 mM NADA-Green (Bio-Techne, Minneapolis, MN); or for 30 minutes in the presence or absence of 1 mM clickable D-amino acid, EDA (D-propargylglycine, AK Scientific, Union City, CA). For the unlabeled cells or cells labeled with NADA-Green, the cells were pelleted after incubation and resuspended in 1×PBS. For the cells grown in the presence or absence of EDA, the cells were pelleted after incubation by centrifugation (10 min 10,000 g), and supernatant was discarded. Bacteria were washed with 1 mL of 1× PBS, pelleted by centrifugation again (10 min 10,000 g), and supernatant was discarded. […]

Compound: C#CC[C@@H](N)C(=O)O [EDA, D-propargylglycine]
- detection efficiency, cell counts relative to counts obtained by SYBR labeling: Highest detection efficiency
